This is an account of results in US8148361B2, “Kinase inhibitors” (Bristol-Myers Squibb Company, priority 2006, dated 2012).

Molecules are shown by their SMILES.

Sequence of VEGFR-2 (P35968 20-1356): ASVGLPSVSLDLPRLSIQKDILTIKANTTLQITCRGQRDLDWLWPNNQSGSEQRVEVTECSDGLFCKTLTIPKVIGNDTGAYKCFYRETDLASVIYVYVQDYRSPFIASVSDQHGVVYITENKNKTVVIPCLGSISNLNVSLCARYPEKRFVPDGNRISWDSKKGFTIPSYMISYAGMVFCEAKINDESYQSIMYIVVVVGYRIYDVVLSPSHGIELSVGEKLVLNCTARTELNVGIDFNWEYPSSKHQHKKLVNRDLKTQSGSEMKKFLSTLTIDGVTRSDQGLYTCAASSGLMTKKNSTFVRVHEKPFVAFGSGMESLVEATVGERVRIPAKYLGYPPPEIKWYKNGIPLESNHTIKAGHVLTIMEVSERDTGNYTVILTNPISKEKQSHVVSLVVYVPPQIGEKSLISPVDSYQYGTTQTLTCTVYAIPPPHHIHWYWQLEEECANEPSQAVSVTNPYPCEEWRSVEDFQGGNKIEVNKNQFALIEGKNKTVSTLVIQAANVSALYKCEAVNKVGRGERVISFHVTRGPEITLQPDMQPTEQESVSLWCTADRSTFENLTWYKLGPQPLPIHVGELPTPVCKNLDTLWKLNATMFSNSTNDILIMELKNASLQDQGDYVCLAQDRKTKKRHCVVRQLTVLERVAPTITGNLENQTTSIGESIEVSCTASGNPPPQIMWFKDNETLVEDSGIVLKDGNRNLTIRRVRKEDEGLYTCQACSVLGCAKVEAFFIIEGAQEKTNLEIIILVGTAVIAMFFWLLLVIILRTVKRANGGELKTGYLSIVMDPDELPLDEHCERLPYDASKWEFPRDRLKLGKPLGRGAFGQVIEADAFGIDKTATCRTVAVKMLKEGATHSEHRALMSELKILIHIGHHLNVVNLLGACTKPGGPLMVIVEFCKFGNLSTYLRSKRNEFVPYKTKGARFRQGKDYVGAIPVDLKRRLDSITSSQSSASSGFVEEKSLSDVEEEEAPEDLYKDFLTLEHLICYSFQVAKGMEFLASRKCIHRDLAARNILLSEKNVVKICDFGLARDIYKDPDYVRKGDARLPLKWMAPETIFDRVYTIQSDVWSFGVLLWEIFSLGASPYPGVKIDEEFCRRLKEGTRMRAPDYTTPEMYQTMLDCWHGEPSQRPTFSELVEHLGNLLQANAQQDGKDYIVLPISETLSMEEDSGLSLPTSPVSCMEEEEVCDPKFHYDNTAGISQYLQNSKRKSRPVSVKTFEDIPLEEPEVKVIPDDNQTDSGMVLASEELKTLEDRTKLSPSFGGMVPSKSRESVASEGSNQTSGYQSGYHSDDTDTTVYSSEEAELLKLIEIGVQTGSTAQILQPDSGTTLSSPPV

The target in the first assay is VEGFR-2 (Homo sapiens, UniProt P35968). Put plainly: VEGFR-2 kinase assay. It counts as biochemical. As to conditions: poly glu/tyr substrate, 33P-ATP; read-out: VEGFR2 IC50. The protocol: 1. VEGFR-2 and FGFR-1 Kinase Assays:
Incubation mixtures employed for VEGFR-2 or FGFR-1 assay contain the synthetic substrate poly glu/tyr, (4:1), ATP, ATP-γ-^33P and buffer containing Mn^++ and/or Mg^++, DTT, BSA, and Tris buffer. The reaction is initiated by addition of enzyme and after 60 minutes at room temperature is terminated by the addition of 30% TCA to a final concentration of 15% TCA. Inhibitors are brought to 10 mM in 100% DMSO. Assays are prepared in a 96 well format in quadruplicate. Compounds are diluted 1:500 in 100% DMSO and then 1:10 in water for a final DMSO concentration of 10%. 10 μL are added to rows B-H in a 96 well format of 10% DMSO. 20 μl of compound is added to row A at a concentration 5 fold higher than running conditions. Ten μL are transferred to each row followed by six serial dilutions with mixing, and at row F 10 μL are discarded. Row G is a control with no compound and row H is no compound and no enzyme control. Enzyme and substrate are delivered using a Tomtec Quadra station.
Plates are covered with sticky plate tops, incubated at 27° C. for 60 minutes, and then acid precipitated with TCA for 20 minutes on ice. The precipitate is transferred to UniFilter-96, GF/C microplates using either a Tomtec or Packard FilterMate harvester. Activity is determined by quantitating the incorporated radioactivity using a Packard TopCount Microplate Scintillation Counter following the addition of Microscint-20 cocktail into each dried well of the UniFilter microplates.
As usually defined, the IC50 is the concentration needed to halve the response being measured. Consider `O=C(NC1CC1)c1ccc(F)c(NCc2cnc3[nH]c(-c4ccccc4)cc3c2)c1` [Example 1, N-Cyclopropyl-4-fluoro-3-{(2-phenyl-1H-pyrrolo[2,3-b]pyridin-5-yl)methylamino}benzamide], for which the 50% inhibitory concentration (IC50) is 16 nM.

`O=C(NC1CC1)c1cc(NCc2cnc3[nH]c(-c4ccccc4)cc3c2)c(F)cc1F` [Example 2, N-cyclopropyl-2,4-difluoro-5-((2-phenyl-1H-pyrrolo[2,3-b]pyridin-5-yl)methylamino)benzamide]: the concentration for half-maximal inhibition (IC50) is 64 nM.

Consider `O=C(NC1CC1)c1ccc(F)c(CNc2cnc3[nH]c(-c4ccccc4)cc3c2)c1` [Example 3, N-cyclopropyl-4-fluoro-3-((2-phenyl-1H-pyrrolo[2,3-b]pyridin-5-ylamino)methyl)benzamide], for which the IC50 is 103 nM.

In the case of `O=C(NC1CC1)c1ccc(F)c(NCc2cnc3[nH]c(C4CC4)cc3c2)c1` [Example 4, N-cyclopropyl-3-((2-cyclopropyl-1H-pyrrolo[2,3-b]pyridin-5-yl)methylamino)-4-fluorobenzamide], the 50% inhibitory concentration (IC50) stood at 146 nM.

In the case of `O=C(NC1CC1)c1ccc(F)c(NCc2cnc3[nH]c(-c4cccnc4)cc3c2)c1` [Example 5, N-cyclopropyl-4-fluoro-3-((2-(pyridin-3-yl)-1H-pyrrolo[2,3-b]pyridin-5-yl)methylamino)benzamide], the half-inhibitory concentration (IC50) was 17 nM.

In another assay the target is T1, IGF-1 receptor tyrosine kinase (Homo sapiens, UniProt P08069).
T1 construct: host or cells: baculovirus expression system
T1 sequence (P08069 31-1367): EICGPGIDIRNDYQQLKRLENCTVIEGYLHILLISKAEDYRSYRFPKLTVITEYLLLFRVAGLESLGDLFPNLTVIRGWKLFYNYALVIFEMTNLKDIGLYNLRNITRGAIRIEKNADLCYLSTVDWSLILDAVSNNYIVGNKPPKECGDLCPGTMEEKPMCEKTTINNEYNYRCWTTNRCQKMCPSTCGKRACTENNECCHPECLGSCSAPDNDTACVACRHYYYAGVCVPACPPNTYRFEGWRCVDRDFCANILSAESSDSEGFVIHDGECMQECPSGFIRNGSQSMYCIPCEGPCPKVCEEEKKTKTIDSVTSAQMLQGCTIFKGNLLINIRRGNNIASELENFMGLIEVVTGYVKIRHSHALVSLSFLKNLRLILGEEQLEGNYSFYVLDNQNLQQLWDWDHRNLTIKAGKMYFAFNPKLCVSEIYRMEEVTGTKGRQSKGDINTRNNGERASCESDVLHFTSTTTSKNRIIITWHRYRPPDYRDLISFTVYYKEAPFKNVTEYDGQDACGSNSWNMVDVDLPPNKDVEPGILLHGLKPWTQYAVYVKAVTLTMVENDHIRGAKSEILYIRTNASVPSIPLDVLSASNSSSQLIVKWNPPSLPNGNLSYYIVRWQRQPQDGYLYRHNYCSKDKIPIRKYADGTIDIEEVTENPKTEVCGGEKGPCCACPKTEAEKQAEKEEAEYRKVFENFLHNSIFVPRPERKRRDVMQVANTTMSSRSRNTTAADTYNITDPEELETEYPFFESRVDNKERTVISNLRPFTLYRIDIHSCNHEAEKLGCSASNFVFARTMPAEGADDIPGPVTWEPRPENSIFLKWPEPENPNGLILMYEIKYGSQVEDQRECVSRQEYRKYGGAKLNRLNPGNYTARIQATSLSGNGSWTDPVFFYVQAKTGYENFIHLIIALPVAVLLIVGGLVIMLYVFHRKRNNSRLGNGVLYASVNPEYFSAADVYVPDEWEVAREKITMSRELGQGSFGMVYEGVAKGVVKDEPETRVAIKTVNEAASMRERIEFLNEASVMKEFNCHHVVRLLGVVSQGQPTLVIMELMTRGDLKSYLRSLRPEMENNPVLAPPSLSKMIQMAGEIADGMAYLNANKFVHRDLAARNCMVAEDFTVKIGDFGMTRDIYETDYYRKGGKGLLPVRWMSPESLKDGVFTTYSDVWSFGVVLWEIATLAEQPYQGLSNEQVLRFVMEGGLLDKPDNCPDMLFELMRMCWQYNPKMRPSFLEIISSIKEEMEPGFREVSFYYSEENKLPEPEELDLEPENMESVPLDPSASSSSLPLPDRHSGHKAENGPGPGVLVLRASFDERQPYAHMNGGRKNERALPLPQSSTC
Put plainly: IGF-receptor tyrosine kinase assay. The assay is classed as biochemical. As to conditions: poly(Glu/Tyr) substrate, 25 μM ATP, baculovirus expressed enzyme; read-out: IGF1R IC50. The protocol:
3. IGF-Receptor Tyrosine Kinase Assay
The IGF-1 receptor tyrosine kinase was assayed using the synthetic polymer poly(Glu/Tyr) (Sigma Chemicals) as a phosphoacceptor substrate. Each reaction mixture consisted of a total volume of 50 ul and contained 125 ng of baculovirus expressed enzyme, 2.5 μg of poly(Glu/Tyr), 25 μM of ATP, and 0.1 μCi of [γ-^33P]ATP. The mixtures also contained 20 mM MOPS, pH 7.0, 5 mM MnCl2, 0.5 mM […], and 0.1 mg/ml bovine serum albumin. The reaction mixtures were incubated at 30° C. for 45 minutes and kinase activity was determined by quantitation of the amount of radioactive phosphate transferred to the poly(Glu/Tyr) substrate. Incorporation was measured by the addition of cold trichloroacetic acid (TCA) precipitation of the proteins which were collected onto GF/C unifilter plates (Packard Instrument Co., Meriden, Conn.) using a Filtermate universal harvester and the filters were quantitated using a TopCount 96-well liquid scintillation counter (Packard Instrument Co., Meriden, Conn.). Compounds were dissolved in dimethyl sulfoxide to a concentration of 10 mM and were evaluated at six concentrations, each in triplicate.
Turning to `O=C(NC1CN(S(=O)(=O)c2ccc(F)cc2)C1)c1cccc(Sc2cnc3[nH]c(-c4ccccc4)cc3c2)c1` [Example 13, N-(1-(4-fluorophenylsulfonyl)azetidin-3-yl)-3-(2-phenyl-1H-pyrrolo[2,3-b]pyridin-5-ylthio)benzamide], the half-maximal inhibitory concentration (IC50) is 199 nM.
